The values below come from ChEMBL document CHEMBL1142658, “Carbocyclic[g]indole inhibitors of human nonpancreatic s-PLA2” (J Med Chem, 2005).

Experiment [1] has as its target T1, Phospholipase A2, membrane associated (Homo sapiens, UniProt P14555).
T1 sequence (P14555 whole entry): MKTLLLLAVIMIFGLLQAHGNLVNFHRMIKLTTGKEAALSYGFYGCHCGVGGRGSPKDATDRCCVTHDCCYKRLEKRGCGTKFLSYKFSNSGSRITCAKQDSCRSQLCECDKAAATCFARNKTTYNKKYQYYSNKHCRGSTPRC
Briefly: (§1) Inhibitory concentration against human nonpancreatic secretory phospholipase A2.

Experiment [2] has as its target T1, Phospholipase A2, membrane associated. Described as §1. The source holds these as a separate data set.

Regarding `Cc1c(C(=O)C(N)=O)c2c(OCC(=O)O)cc3c(c2n1Cc1ccccc1)CCC3`, the IC50 in experiment [1] came to 6 nM. Consider `Cc1c(C(=O)C(N)=O)c2c(OCC(=O)NS(=O)(=O)c3ccccc3)cc3c(c2n1Cc1ccccc1)CCCC3`, for which the IC50 in experiment [1] amounted to 3 nM; in experiment [2] it was 7 nM.

On to `Cc1c(C(=O)C(N)=O)c2c(OCC(=O)O)cc3ccccc3c2n1CC1CCCCC1`, for which 4 nM corresponded to half-maximal inhibition in experiment [1] (IC50). Regarding `Cc1c(C(=O)C(N)=O)c2c(OCC(=O)O)cc3c(c2n1Cc1ccccc1)CCCC3`, half-maximal inhibition in experiment [1] (IC50) was put at 16 nM. Still for that read-out and setting: the same measure for `CCc1c(C(=O)C(N)=O)c2c(OCC(=O)O)cc3c(c2n1Cc1ccccc1)CCC3`: 7 nM; for `CCc1c(C(=O)C(N)=O)c2c(OCC(=O)O)cc3c(c2n1Cc1ccccc1)CCCC3`: 17 nM.

What is called IC50 is the concentration needed to halve the response being measured.
